Laboratory results from patent US9125406B2, “Methods and compositions for control of cabbage looper, trichoplusia ni” (Simon Fraser University, priority 2008, dated 2015).
Like-named read-outs stand apart in the source and are kept apart here.

Assays:
[1] = system: third instar T. ni larvae; test: Leaf disk choice feeding deterrence bioassay; type: in vivo, Trichoplusia ni; conditions: for pest or weed control at 50 µg/cm2, 50 µg/cm2 / pest or weed control at 50 µg/cm2: Trichoplusia, foliar; for pest or weed control at 50 µg/cm2: feeding deterrence (FD), Table 12, non-toxic feeding deterrents, read-out: % deterrence; for DC50: feeding deterrence DC50, unit not given in Table 12; for Feeding deterrency: Table 6 summary class
Text: Cabbage plants (Brassica oleraceae var. Stonehead) used in the bioassays were routinely grown in plastic pots with a mixture of sandy loam soil and peat moss (4:1) in a greenhouse at the University of British Columbia, Vancouver, BC, Canada. Leaves were collected from cabbage plants that were 5-6 weeks old.
T. ni larvae and moths were obtained from a long established colony (>50 generations) maintained on an artificial diet, Velvetbean Caterpillar Diet No. F9796 [Bio-Sery Inc. (Frenchtown, NIL)] in the insectary of the University of British Columbia (UBC).
(§1) Initial screening for feeding deterrent effects was conducted at 50 μg/cm^2 in feeding deterrent bioassays.
Larvae were given the choice of feeding on two leaf disks, one treated with 10 μL of a solution of the test substance painted on each side and the other treated with a carrier solvent alone. The number of larvae was 25 per treatment.
Feeding deterrence data (percent) for initial screening concentration were analyzed by analysis of variance (ANOVA) after arcsin transformation using statistics software (Statistix 7. Analytical Software, Statistix 7 for Windows 95, 98, NT, 2000. Analytical Software, Tallahassee).

[2] = system: third instar T. ni larvae; test: whole plant or invertebrate; conditions: for mortality at 0.25 %: Trichoplusia, topical, 24 h
Method: as §1
Mortality was determined 24 h after spraying larvae directly with test solutions. Third instar T. ni larvae were sprayed in 90 mm×15 mm Petri dishes (Falcon) lined with Fisher Scientific filter paper (90 mm diameter). Small plastic hand spraying bottles (50 mL capacity) were used. Larvae were then transferred to Petri dishes (90 mm×15 mm) with a small piece of artificial diet. Each Petri dish contained 10 larvae. Three replicates, each consisting of 10 larvae, were used per treatment.

[3] = system: T. ni moths; test: Oviposition choice (deterrence) bioassay on cabbage leaves; type: in vivo, Trichoplusia ni; conditions: for pest or weed control at 0.25 %: Trichoplusia, read-out: OD (%), mean ± SE (n = 25-33); for % deterrence / Index = deterrence/mortality: Table 11; for % deterrence: BL mark not explained; for Index = deterrence/mortality: oviposition deterrence divided by mortality; for Oviposition deterrency: Table 6 summary class, 0.25%
Method: as §1
T. ni larvae were reared on normal diet from neonates (<24 h old) until pupation. Pupae were sexed and put in separate plastic containers until emergence. After eclosion, pairs of moths (one male and one female) were introduced into each cage with a control and a treated cabbage leaf. Pairs of moths (n=25) were used per treatment. Each leaf (approximately 100-110 cm^2) was sprayed with 0.5 mL of MeOH or a methanolic solution of the test chemical on each side. Eggs were counted on each cabbage leaf after 48 h.

[4] = system: T. ni moths; test: as above; type: in vivo, Trichoplusia ni; conditions: Trichoplusia, 48 h, at 0.25%, read-out: OD (%) Mean ± SE N = 35-40
[5] = Table 4, 1,3-dialkoxybenzenes, feeding deterrence at 50 μg/cm^2, read-out: FD (%), mean (SE (n = 25))
[6] = Table 8, 50 μg/cm^2, read-out: F.D (%) Mean ± SE N = 25
[7] = read-out: Mortality (%) N = 3 × 10, Table 8, at 0.25%
[8] = read-out: mortality (%) (n = 3 × 10), Table 4, at 0.25%
[9] = contact toxicity to larvae, negative or zero values replaced by 0.1 for the index (footnote b)
[10] = 48 h, Table 4, oviposition deterrence at 0.25%, 48 h
[11] = Table 3, 1,4-dialkoxybenzenes, feeding deterrence at 50 μg/cm^2, read-out: FD (%), mean ± SE (n = 25)
[12] = read-out: mortality (%) (n = 3 × 10), Table 3, at 0.25%
[13] = oviposition deterrence at 0.25%
[14] = 48 h, Table 3, oviposition deterrence at 0.25%, 48 h

C=CCOc1ccccc1OCC=C [3a{6,6}, 1,2-Diallyloxy benzene]
pest or weed control at 50 µg/cm2, 50 µg/cm2 ([1]; Table 5, 1,2-dialkoxybenzenes, feeding deterrence at 50 μg/cm^2, read-out: FD (%), mean ± SE (n = 25)): 70.4 ± 13.2% | mortality at 0.25 % ([2]; read-out: mortality (%) (n = 3 × 10), Table 5, at 0.25%): 20% | pest or weed control at 0.25 % ([3]; 48 h, Table 5, oviposition deterrence at 0.25%, 48 h): 15%

COc1cccc(OC)c1 [3b{1,1}, 1,3-Dimethoxy benzene]
pest or weed control at 50 µg/cm2, 50 µg/cm2 [1, 5]: 20.4 ± 19.1%

COc1cccc(OCCC(C)C)c1 [3b{1, 5}, 1-methoxy-3-(3-methyl-butyloxy)benzene]
pest or weed control at 0.25 % ([4]; Table 8): 25 to 30% | pest or weed control at 50 µg/cm2, 50 µg/cm2 [1, 6]: 89 ± 7% | mortality at 0.25 % [2, 7]: 30%

CCOc1cccc(OCC)c1 [3b{2,2}, 1,3-Diethoxy benzene]
pest or weed control at 50 µg/cm2, 50 µg/cm2 [1, 5]: 89.4 ± 8.3% | pest or weed control at 50 µg/cm2 [1]: 89% | DC50 [1]: 29 μg/cm^2 | mortality at 0.25 % [2, 8]: 36.7% | % mortality [2, 9]: 37% | pest or weed control at 0.25 % [3, 10]: 3.4%

CCCOc1cccc(OCCC)c1 [3b{3,3}, 1,3-Dipropoxy benzene]
pest or weed control at 50 µg/cm2, 50 µg/cm2 [1, 5]: 96.9 ± 3.1% | pest or weed control at 50 µg/cm2 [1]: 97% | DC50 [1]: 27 μg/cm^2 | LC50 ([2]; Table 4, concentration causing 50% mortality): 0.16% | mortality at 0.25 % [2, 8]: 76.7% | % mortality [2, 9]: 77% | pest or weed control at 0.25 % [3, 10]: 33%

CC(C)CCOc1cccc(OCCC(C)C)c1 [3b{5,5}, 1,3-Di-(3-methyl-butyloxy)benzene]
pest or weed control at 50 µg/cm2, 50 µg/cm2 [1, 5]: -12.2 ± 18.8%

C=CCOc1cccc(OCCC(C)C)c1 [3b{5, 6}, 1-allyloxy-3-isopentoxybenzene]
pest or weed control at 0.25 % ([4]; Table 8): 10 ± 13%

COc1ccc(OC)cc1 [3c{1,1}, 1,4-Dimethoxy benzene]
pest or weed control at 50 µg/cm2, 50 µg/cm2 [1, 11]: 9.9 ± 18%

C=CCOc1ccc(OC)cc1 [3c{1, 6}, 1-allyloxy-4-methoxybenzene]
pest or weed control at 50 µg/cm2, 50 µg/cm2 [1, 6]: 62 ± 15% | mortality at 0.25 % [2, 7]: 6%

CCOc1ccc(OCC)cc1 [3c{2, 2}, 1,4-Diethoxy benzene]
pest or weed control at 50 µg/cm2, 50 µg/cm2 [1, 11]: 80.8 ± 11.3% | pest or weed control at 50 µg/cm2 [1]: 81% | DC50 [1]: 26 μg/cm^2 | LC50 ([2]; Table 3, concentration causing 50% mortality compared with the control): 0.03% | % mortality ([2]; Table 11, at 0.25%): 100% | mortality at 0.25 % [2, 12]: 100% | % mortality [2, 9]: 100% | OD (%), mean ± SE (n = 25-33) ([3]; Table 3, oviposition deterrence at 0.25%, 48 h): 74.7 ± 13.3a % | % deterrence [3, 13]: 75% | Index = deterrence/mortality [3]: 0.75 | pest or weed control at 0.25 % [3, 14]: 74.7%

CCCOc1ccc(OCCC)cc1 [3c{3,3}, 1,4-Dipropoxy benzene]
pest or weed control at 50 µg/cm2, 50 µg/cm2 [1, 11]: 96 ± 2.8% | pest or weed control at 50 µg/cm2 [1]: 96% | DC50 [1]: 20 μg/cm^2 | mortality at 0.25 % [2, 12]: 22.6% | % mortality [2, 9]: 23% | pest or weed control at 0.25 % [3, 14]: 11.8 ± 13.1%

CC(C)CCOc1ccc(OCCC(C)C)cc1 [3c{5,5}, 1,4-Di-(3-methyl-butyloxy)benzene]
pest or weed control at 50 µg/cm2, 50 µg/cm2 [1, 11]: 44 ± 18.3%

C=CCOc1ccc(OCCCC)cc1 [3c{6,4}, 1-allyloxy-4-butoxy benzene]
pest or weed control at 50 µg/cm2, 50 µg/cm2 [1, 11]: 84 ± 10.7% | mortality at 0.25 % [2, 12]: 10% | pest or weed control at 0.25 % [3, 14]: 16.8 ± 13.8%

C=CCOc1ccc(OCC=C)cc1 [3c{6,6}, 1,4-Diallyloxy benzene]
pest or weed control at 50 µg/cm2, 50 µg/cm2 [1, 11]: 96.9 ± 3.6% | pest or weed control at 50 µg/cm2 [1]: 97% | DC50 [1]: 24 μg/cm^2 | mortality at 0.25 % [2, 12]: 16% | % mortality [2, 9]: 16% | pest or weed control at 0.25 % [3, 14]: 14.1 ± 13.1%

C=CCc1c(OC)cccc1OCCC [5b{3, 1} y (100% y), 1-methoxy-2-allyl-3-propoxy-benzene]
pest or weed control at 0.25 % ([4]; Table 7, second lots and purified isomers): 17 ± 14% | pest or weed control at 50 µg/cm2, 50 µg/cm2 ([1]; Table 7, second lots and purified isomers, 50 μg/cm^2, read-out: F.D (%) Mean ± SE N = 25): 100%

CCOc1ccc(OCC)cc1 [drawing 17]
Feeding deterrency ([1]; 50 μg/cm^2): strong (Strong feeding deterrency, >80%) | Oviposition deterrency [3]: strong (Strong oviposition deterrency, >50%)

CCCOc1cccc(OCCC)c1 [drawing 18]
Feeding deterrency ([1]; 50 μg/cm^2): strong (Strong feeding deterrency, >80%) | Oviposition deterrency [3]: moderate (moderate, >25%)

CCCOc1ccc(OCCC)cc1 [drawing 22]
Feeding deterrency ([1]; 50 μg/cm^2): strong (Strong feeding deterrency, >80%) | Oviposition deterrency [3]: weak (weak, >10%)

C=CCOc1ccc(OCC=C)cc1 [drawing 23]
Feeding deterrency ([1]; 50 μg/cm^2): strong (Strong feeding deterrency, >80%) | Oviposition deterrency [3]: weak (weak, >10%)

C=CCOc1ccc(OCCCC)cc1 [drawing 24]
Feeding deterrency ([1]; 50 μg/cm^2): strong (Strong feeding deterrency, >80%) | Oviposition deterrency [3]: weak (weak, >10%)

butyl eugenol
% mortality ([2]; in vivo): 15% | % deterrence [3, 13]: 34 BL % | Index = deterrence/mortality [3]: 2.2
